Where two headings read alike, the source gives them in different places.
Target: T1, sodium-proton exchanger of subtype 3 (NHE3) (Homo sapiens, UniProt P48764)
T1 construct: expressed in transfected cells
T1 sequence (P48764 26-834): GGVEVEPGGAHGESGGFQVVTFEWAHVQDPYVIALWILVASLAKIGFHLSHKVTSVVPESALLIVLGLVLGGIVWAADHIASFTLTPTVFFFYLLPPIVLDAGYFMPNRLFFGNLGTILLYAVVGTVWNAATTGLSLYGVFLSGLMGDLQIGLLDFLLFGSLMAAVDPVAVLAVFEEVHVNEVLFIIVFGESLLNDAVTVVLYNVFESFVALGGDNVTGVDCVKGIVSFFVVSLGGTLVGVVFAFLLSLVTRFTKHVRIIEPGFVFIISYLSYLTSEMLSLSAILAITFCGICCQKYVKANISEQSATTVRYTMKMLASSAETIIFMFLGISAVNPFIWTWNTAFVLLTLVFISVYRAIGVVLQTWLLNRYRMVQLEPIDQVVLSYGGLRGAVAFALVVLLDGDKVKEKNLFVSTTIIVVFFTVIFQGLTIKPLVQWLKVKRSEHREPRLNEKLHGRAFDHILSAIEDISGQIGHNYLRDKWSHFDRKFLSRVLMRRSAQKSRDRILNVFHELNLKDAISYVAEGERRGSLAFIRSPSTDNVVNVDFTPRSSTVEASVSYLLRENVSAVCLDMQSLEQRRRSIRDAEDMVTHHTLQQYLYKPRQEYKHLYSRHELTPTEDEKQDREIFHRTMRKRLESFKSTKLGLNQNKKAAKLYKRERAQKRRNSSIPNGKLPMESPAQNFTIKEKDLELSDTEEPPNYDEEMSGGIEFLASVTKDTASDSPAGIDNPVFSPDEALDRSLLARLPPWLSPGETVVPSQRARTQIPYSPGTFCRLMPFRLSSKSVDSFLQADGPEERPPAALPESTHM
Assay: Recovery of intracellular pH (pHi) after acidification in LAP1 cells stably expressing NHE3 (BCECF fluorescence, FLIPR)
Assay type: cell-based

[1] = LAP1 cells stably expressing NHE3, pH recovery after acidification, range 1 is % inhibition at 10 μM, read-out: Activity range (inhibitory effect on NHE3)

Compound | inhibition at 10 µM [1] | IC50 [1] | also measured
CS(=O)(=O)c1ccccc1O[C@H]1c2cc(Cl)cc(Cl)c2C[C@@H]1N1CCCC1 [Example 247, 1-[(1S,2S)-4,6-dichloro-1-(2-methanesulfonylphenoxy)indan-2-yl]pyrrolidine] | 20 to 50% | – | –
N#Cc1ccc2cccc(O[C@H]3c4ccccc4CC[C@@H]3N3CCOCC3)c2n1 (racemic) [Example 594, 8-(rac-trans-(1,2)-2-morpholin-4-yl-1,2,3,4-tetrahydronaphthalen-1-yloxy)quinoline-2-carbonitrile] | 20 to 50% | – | –
Cc1nc2cc(O[C@@H]3c4ccccc4C[C@H]3N3CCC(CN)C3)ccc2s1 (mixture of isomers) [Example 608, C-{1-[rac-trans-(1,2)-1-(2-methylbenzothiazol-5-yloxy)indan-2-yl]pyrrolidin-3-yl}methylamine] | – | 1000 to 10000 nM | –
N[C@@H]1CCCN([C@H]2CCc3ccccc3[C@@H]2Oc2ccccc2Br)C1 (racemic) [Example 36, (R)-1-[rac-trans-(1,2)-1-(2-bromophenoxy)-1,2,3,4-tetrahydronaphthalen-2-yl]piperidin-3-ylamine] | 20 to 50% | – | –
Cc1cc(O[C@@H]2c3cc(Cl)cc(F)c3C[C@H]2N2CCC[C@@H](N)C2)ccc1S(=O)(=O)C(F)(F)F (racemic) [Example 92, (R)-1-[rac-trans-(1,2)-6-chloro-4-fluoro-1-(3-methyl-4-trifluoromethanesulfonylphenoxy)indan-2-yl]piperidin-3-ylamine] | 20 to 50% | – | –
NS(=O)(=O)c1ccc(OC2c3ccccc3CC2N2CC[C@@H](O)C2)cc1 (mixture of isomers) [Example 527, 4-[rac-trans-(1,2)-2-((R)-3-Hydroxypyrrolidin-1-yl)indan-1-yloxy]benzenesulfonamide] | – | 1000 to 10000 nM | –
O=C(O[C@H]1c2ccccc2C[C@@H]1N1CCCC1)c1ccc(N2C(=O)CCC2=O)cc1 [Example 458, 4-(2,5-dioxopyrrolidin-1-yl)benzoic acid (1S,2S)-2-pyrrolidin-1-ylindan-1-yl ester] | 20 to 50% | – | –
N[C@H]1CCCN([C@H]2CCc3ccccc3[C@@H]2Oc2cccc(F)c2)C1 (racemic) [Example 168, (S)-1-[rac-trans-(1,2)-1-(3-fluorophenoxy)-1,2,3,4-tetrahydronaphthalen-2-yl]piperidin-3-ylamine] | 20 to 50% | – | –
N#Cc1ccc(O[C@H]2c3ccccc3CC[C@@H]2N2CCC[C@H](N)C2)c(Cl)c1 (racemic) [Example 532, 4-[rac-trans-(1,2)-2-((S)-3-aminopiperidin-1-yl)-1,2,3,4-tetrahydronaphthalen-1-yloxy]-3-chlorobenzonitrile] | – | 1000 to 10000 nM | –
CS(=O)(=O)c1ccc(O[C@@H]2c3ccccc3C[C@H]2NCC2CCC2)cc1 (racemic) [Example 717, Cyclobutylmethyl-[rac-trans-(1,2)-1-(4-methanesulfonyl-phenoxy)-indan-2-yl]-amine] | – | 1000 to 10000 nM | –
Cc1ccc(O[C@H]2c3ccccc3CC[C@@H]2N2CCC[C@H](N)C2)c(Cl)c1 (racemic) [Example 152, (S)-1-[rac-trans-(1,2)-1-(2-chloro-4-methylphenoxy)-1,2,3,4-tetrahydronaphthalen-2-yl]piperidin-3-ylamine] | 20 to 50% | – | –
COC(=O)c1ccc(O[C@H]2c3cc(Cl)ccc3C[C@@H]2N2CC[C@@H](O)C2)c(Cl)c1 [Example 446, 3-chloro-4-[trans-(1S,2S)-6-chloro-2-((R)-3-hydroxypyrrolidin-1-yl)indan-1-yloxy]benzoic acid methyl ester] | 20 to 50% | – | –
Cc1cc(F)ccc1O[C@@H]1c2ccccc2C[C@H]1N1C[C@H]2CNC[C@H]2C1 (racemic) [Example 16, 2-[rac-trans-(1,2)-1-(4-fluoro-2-methylphenoxy)indan-2-yl]octahydropyrrolo[3,4-c]pyrrole] | – | 1000 to 10000 nM | –
CS(=O)(=O)c1ccc(O[C@H]2c3c(Cl)sc(Cl)c3CC[C@@H]2N2CCCC2)cc1 (racemic) [Example 253, 1-[1,3-dichloro-4-(4-methanesulfonylphenoxy)-4,5,6,7-tetrahydrobenzo[c]thiophen-5-yl]pyrrolidine] | – | – | inhibition at 10 µM (LAP1, read-out: Activity range (inhibitory effect on NHE3)): 20 to 50%
CN(C1CCCNC1)[C@@H]1Cc2ccccc2[C@H]1Oc1ccc(S(N)(=O)=O)c(Cl)c1Cl (mixture of isomers) [Example 360, 2,3-dichloro-4-[rac-trans-(1,2)-2-(methylpiperidin-3-ylamino)indan-1-yloxy]benzenesulfonamide] | – | 1000 to 10000 nM | –
CN(C)C1Cc2ccccc2C1Oc1ccc(S(N)(=O)=O)c(Cl)c1Cl (racemic) [Example 356, 2,3-dichloro-4-(rac-trans-(1,2)-2-dimethylaminoindan-1-yloxy)benzenesulfonamide] | – | < 1000 nM | –

Compound | inhibition at 10 µM [1] | IC50 [1] | also measured
CN(C1CCNCC1)[C@@H]1Cc2ccccc2[C@H]1Oc1cccc(N2CCNCC2)c1 (racemic) [Example 629, methyl-[rac-trans-(1,2)-1-(3-piperazin-1-ylphenoxy)indan-2-yl]piperidin-4-ylamine] | – | 1000 to 10000 nM | –
CCN(CC)[C@@H]1Cc2ccccc2[C@H]1Oc1cccc(NC(N)=O)c1 (racemic) [Example 212, [3-(rac-trans-(1,2)-2-diethylaminoindan-1-yloxy)phenyl]-urea] | – | 1000 to 10000 nM | –
N[C@@H]1CCCN([C@@H]2Cc3c(Cl)cc(Cl)cc3[C@H]2Oc2ccccc2)C1 [Example 23, (R)-1-(trans-(1R,2R)-4,6-dichloro-1-phenoxyindan-2-yl)piperidin-3-ylamine] | – | 1000 to 10000 nM | –
CN(C1CCCC1)[C@@H]1Cc2ccccc2[C@H]1Oc1ccc(S(C)(=O)=O)cc1 (racemic) [Example 730, Cyclopentyl-[rac-trans-(1,2)-1-(4-methanesulfonyl-phenoxy)-indan-2-yl]-methyl-amine] | – | 1000 to 10000 nM | –
Fc1ccc(O[C@H]2c3ccccc3CC[C@@H]2N2CCOCC2)c2ncccc12 (racemic) [Example 586, 5-fluoro-8-(rac-trans-(1,2)-2-morpholin-4-yl-1,2,3,4-tetrahydronaphthalen-1-yloxy)quinoline] | 20 to 50% | – | –
CC(=O)Nc1cccc(O[C@H]2c3ccccc3CC[C@@H]2N2CCC[C@H](N)C2)c1 (racemic) [Example 684, N-{3-[rac-trans-(1,2)-2-((S)-3-aminopiperidin-1-yl)-1,2,3,4-tetrahydronaphthalen-1-yloxy]phenyl}acetamide] | 20 to 50% | – | –
O=C1CCCN1c1ccc(O[C@H]2c3cc(Cl)cc(Cl)c3C[C@@H]2N2CC[C@@H](O)C2)c(Cl)c1 [Example 321, 1-{3-chloro-4-[(1S,2S)-4,6-dichloro-2-((R)-3-hydroxypyrrolidin-1-yl)indan-1-yloxy]phenyl}pyrrolidin-2-one] | – | < 1000 nM | –
CC(=O)NCc1cccc(O[C@H]2c3ccccc3C[C@@H]2N2CCCC2)c1 (racemic) [Example 640, N-[3-(rac-trans-(1,2)-2-pyrrolidin-1-ylindan-1-yloxy)benzyl]acetamide] | – | < 1000 nM | –
N#Cc1ccc(O[C@H]2c3ccccc3CC[C@@H]2N2CCOCC2)cc1F (racemic) [Example 396, 2-fluoro-4-(rac-trans-(1,2)-2-morpholin-4-yl-1,2,3,4-tetrahydronaphthalen-1-yloxy)benzonitrile] | 20 to 50% | – | –
CC(=O)Nc1cccc(O[C@H]2c3c(Cl)cccc3C[C@@H]2N2CCCC2)c1 (racemic) [Example 662, N-[3-(rac-trans-(1,2)-7-chloro-2-pyrrolidin-1-ylindan-1-yloxy)phenyl]acetamide] | – | 1000 to 10000 nM | –
N#Cc1ccc(O[C@@H]2c3ccccc3C[C@H]2N2CCC[C@@H](N)C2)c(Cl)c1 (racemic) [Example 523, 4-[rac-trans-(1,2)-2-((R)-3-aminopiperidin-1-yl)indan-1-yloxy]-3-chlorobenzonitrile] | – | 1000 to 10000 nM | –
CS(=O)(=O)c1ccc(O[C@H]2c3cc(Cl)cc(Cl)c3C[C@@H]2N2CCCNCC2)cc1 (racemic) [Example 277, 1-[rac-trans-(1,2)-4,6-dichloro-1-(4-methanesulfonylphenoxy)indan-2-yl]-[1,4]diazepane] | – | < 1000 nM | –
NC1CCN([C@@H]2Cc3ccccc3[C@H]2Oc2ccc(NC(=O)OCc3ccccc3)cc2)C1 (mixture of isomers) [Example 241, {4-[rac-trans-(1,2)-2-(3-aminopyrrolidin-1-yl)indan-1-yloxy]phenyl}carbamic acid benzyl ester] | – | 1000 to 10000 nM | –
N[C@H]1CCCN([C@H]2CCc3ccccc3[C@@H]2Oc2ccc(F)cc2F)C1 (racemic) [Example 149, (S)-1-[rac-trans-(1,2)-1-(2,4-difluorophenoxy)-1,2,3,4-tetrahydronaphthalen-2-yl]piperidin-3-ylamine] | 20 to 50% | – | –
COc1ccc(C)cc1O[C@H]1c2ccccc2CC[C@@H]1N1CCC[C@H](N)C1 (racemic) [Example 157, (S)-1-[rac-trans-(1,2)-1-(2-methoxy-5-methylphenoxy)-1,2,3,4-tetrahydronaphthalen-2-yl]piperidin-3-ylamine] | 20 to 50% | – | –
